Test results as given in patent publication US20240024494A1, “SMALL-MOLECULE CONJUGATE AND USE THEREOF” (SHANGHAI MEWSGEN BIOTECHNOLOGY CO., LTD, priority 2020, published 2024).

What was measured:
[1] = system: MGC803 (human gastric carcinoma cells); type: cell-based; details: 72 h
Source text: (§1) A part of the compounds of the examples of the present disclosure were subjected to a tumor cell proliferation inhibition test by using an MTT method (e.g. Pharmacological Research Method of New Drug, 2007: 242-243, edited by Lu Qiujun).
(§2) A cell strain was selected from KYSE-150 (human esophageal squamous carcinoma cells), MGC803 (human gastric carcinoma cells), and SHG44 (human glioma cells), and frozen and passaged by a pharmacological laboratory of Shanghai Institute of Pharmaceutical Industry. A culture solution was DMEM+10% FBS+double antibody.
(§3) In-vitro activity test: 100 μL of a cell suspension at a concentration of 4-5×10^4/mL was added to each well of a 96-well plate, and placed in a 5% CO2 incubator at 37° C. After 24 h, a sample solution was added at 10 μL/well, double duplicate wells were set, and a reaction was performed at 37° C. with 5% CO2 for 72 h. 20 μL of 5 mg/ml of an MTT solution was added into each well and reacted for 4 h, a dissolving solution was added at 100 μL/well, the mixture was placed in an incubator, and after dissolution, an OD value at 570 nm was measured with a full-wavelength multifunctional microplate reader. An inhibition rate (IR) and a median inhibitory concentration (IC50) were calculated by using an Excel software.
(§4) The inhibition rate (IR %) of the drug on cell growth was calculated according to the following equation: […]

[2] = system: SHG44 (human glioma cells); type: cell-based; details: 72 h
Source text: as §1, §2, §3, §4

[3] = system: KYSE-150 (human esophageal squamous carcinoma cells); type: cell-based; details: 72 h
Source text: as §1, §2, §3, §4

[4] = system: tumor cell strains (colon cancer, pancreatic cancer, esophageal squamous carcinoma, gastric cancer, glioma); experiment: Summary of in-vitro proliferation inhibition on tumor cell strains (Examples 19-21); type: cell-based, human
Method: (§5) A part of the compounds prepared in the examples of the present disclosure were subjected to a tumor cell proliferation inhibition test by using a CCK-8 method. A cell line HCT116 (human colon carcinoma cells) and SW1990 (human pancreatic carcinoma cells) were purchased from Shanghai Meixuan Technology Co., Ltd. Samples (a part of the compounds prepared in the examples) were dissolved in DMSO (Merck), prepared into a concentration of 10 mM, and finally triply diluted in DMEM or McCoy's 5A 1640 medium to 8 concentration gradients. A cell culture solution was collected when a cell culture met a test requirement, 10 μL of the cell culture solution was uniformly coated on a cell counting plate, cells were counted for 3 times under a microscope, and a cell density was calculated by taking an average value; and a 96-well plate (Corning, #3599) was taken, 200 μL of the cell culture solution was added into each well for cell inoculation at a cell concentration of 6×10^3 cells per well, and the inoculated 96-well plate was incubated in a cell incubator containing 5% CO2 at 37° C. for 24 h. An old culture medium was removed by suction, 200 μL of the triply diluted sample DMEM or McCoy's 5A 1640 medium at an initial concentration of 10 μmol/L was added to each well, the DMSO content was controlled to be 1%, three duplicate wells were set, PBS was used as a blank control, and the plate was incubated in the incubator for 72 h. The original DMEM or McCoy's 5A 1640 medium in the 96-well plate and a PBS buffer in a final row were sucked out, a prepared CCK-8 solution (90% DMEM or McCoy's 5A 1640 medium+10% CCK-8) was added, the mixture was incubated in an incubator, and an absorbance was read by using a Biotek microplate reader. Cell growth inhibition rate IC %=(blank control well OD value−administration well OD value)/blank control well OD value×100%.
as §3
A part of the compounds prepared in the examples of the present disclosure were subjected to a tumor cell proliferation inhibition test by using a CCK-8 method. Cell lines HCT116 (human colon cancer cells), MGC803 (human gastric cancer cells), and MIA PACA-2 (human pancreatic cancer cells) were purchased from Shanghai Meixuan Technology Co., Ltd. Samples (a part of the compounds prepared in the examples) were dissolved in DMSO (Merck), prepared into a concentration of 10 mM, and finally triply diluted in DMEM or McCoy's 5A 1640 medium to 8 concentration gradients. A cell culture solution was collected when a cell culture met a test requirement, 10 μL of the cell culture solution was uniformly coated on a cell counting plate, cells were counted for 3 times under a microscope, and a cell density was calculated by taking an average value; and a 96-well plate (Corning, #3599) was taken, 200 μL of the cell culture solution was added into each well for cell inoculation at a cell concentration of 6×10^3 cells per well, and the inoculated 96-well plate was incubated in a cell incubator containing 5% CO2 at 37° C. for 24 h. […]

[5] = system: MIA PACA-2 (human pancreatic cancer cells); experiment: Tumor cell proliferation inhibition test, CCK-8 method (Example 21); type: cell-based; details: Homo sapiens, MIA PaCa-2; CCK-8, 72 h, Table 3; read-out: IC50 MIA PACA-2
Method: as §5, with “method. Cell lines” for “method. A cell line”, “colon cancer cells), MGC803 (human gastric cancer cells),” for “colon carcinoma cells)”, “and MIA PACA-2” for “and SW1990”, “pancreatic cancer” for “pancreatic carcinoma”

[6] = system: HCT116 (human colon cancer cells); experiment: as above; type: cell-based; details: Homo sapiens, HCT-116; CCK-8, 72 h, Table 3; read-out: IC50 HCT116
Method: as §5, with “method. Cell lines” for “method. A cell line”, “colon cancer cells), MGC803 (human gastric cancer cells),” for “colon carcinoma cells)”, “and MIA PACA-2” for “and SW1990”, “pancreatic cancer” for “pancreatic carcinoma”

Compound	IC50 [1] [nM]	IC50 [2] [nM]	IC50 [3] [nM]	Proliferation inhibition activities IC50 on most tumor cell strains (in words) [4]	IC50 [5] [µM]	IC50 [6] [nM]
COc1cc(C(=O)NCCOCCOCCOCCOCCC(=O)N[C@@H](C(=O)N[C@@H](CCCNC(N)=O)C(=O)Nc2ccc(COC(=O)N3CCN(C(=O)O[C@H]4CC[C@@]5(C)[C@H](CC[C@@H]6[C@@H]5[C@H](O)C(=O)[C@]5(C)[C@@H](c7ccc(=O)oc7)CC[C@]65O)C4)CC3)cc2)C(C)C)ccc1NC(=O)[C@@H]1N[C@@H](CC(C)(C)C)[C@](C#N)(c2ccc(Cl)cc2F)[C@H]1c1cccc(Cl)c1F [Compound I-1]	9	3	40	between several to hundreds of nanomoles	–	–
COc1cc(C(=O)O)ccc1NC(=O)[C@@H]1N[C@@H](CC(C)(C)C)[C@](C#N)(c2ccc(Cl)cc2F)[C@H]1c1cccc(Cl)c1F [Idasanutlin, reference compound]	–	–	–	–	> 10	110
